Consider one compound from patent US9296687B2, “Modulators of HSP70/DnaK function and methods of use thereof” (The Trustees of the University of Pennsylvania, priority 2008, dated 2016).

For assay [1], the system named is NF-κB. The assay can be described thus: NF-κB-dependent luciferase reporter in H1299 cells. It counts as cell-based, human. As to the method: FIG. 4. PES Interferes with HSP70 Actions. […] (B) IP-WB analyses of WCE from PES-treated U2OS osteosarcoma cells reveal a lower bundance of HSP70 complexes containing BAG-1M or APAF1. […] Note evidence of caspase cleavage in cisplatin-treated cells, but not in the presence of PES. […] (D) (left) H1299 cells were transfected with a NF-κB-dependent luciferase reporter. 24 h later, cells were either pretreated with DMSO or the indicated amount of PES for 1 h, followed by the addition of 20 ng/ml of TNFα for 5 h, as specified. Each graphical representation indicates the mean±SD of at least three independent cultures relative to control (DMSO-treated) cells. (right) H1299 cells were treated with 20 μM PES for 5.7 h, followed by treatment with 10 ng/ml TNFα for 20 min. WCE were immunoblotted for the proteins indicated.
(In general: In a reporter assay the amount or activity of a reporter protein is the signal.)

The target in assay [2] is HSP70 (Homo sapiens, UniProt P0DMV8). The assay is described as follows: Immunoprecipitation-western blot of HSP70 complexes with co-chaperones and substrate proteins. In kind it is cell-based. Set-up: endogenous in cells; host or cells: human tumor cell lines (A875, BX-U2OS, U2OS, H1299, MiaPaCa2, HepG2, SKBR3, 293T). In general terms: A western blot detects proteins with antibodies after separation by electrophoresis.

The subject of assay [3] is FaDu tumor xenografts. The assay is described as follows: FaDu xenograft, western blot of tumor lysates for p62/SQSTM1 and LC3. It counts as in vivo, nude mice. To be noted: 40 mg/kg intratumoral.
The test system of assay [4] is HSP70. The assay can be described thus: Capture of HA-tagged HSP70 constructs from transfected H1299 cells with biotinylated compound. To be noted: biotinylated PES. In kind it is binding, human. The protocol: FIG. 1. PES Binds to HSP70. (A) Whole cell extracts (WCE) prepared from A875 and BCL-xL over-expressing U2OS human osteosarcoma cells (BX-U2OS) cells, treated with Biotin or Biotin-PES (B-PES), were captured using NeutrAvidin agarose resins. HSP70-family proteins were identified as the major product in the excised band of ˜70 kDa shown in both Coomassie gels. (B and C) WCE were prepared from the cell lines indicated following 24 h treatment with 20 μM Biotin or B-PES and examined for the expression of proteins indicated (left panel of B and C) by western blot analysis; note that different exposure times were used to visualize these proteins. […] (D) In vitro evidence for an interaction between B-PES and HSP70. Full-length human HSP70 and human HSP90 proteins were in vitro translated in the presence of ^35S-methionine, mixed with B-PES coupled to NeutrAvidin resins, and eluted using 100 mM DTT. […] (F) Non-transformed human IMR90 fibroblasts or H1299 lung carcinoma cells were treated with the indicated concentrations of PES for 24 h and cell viability was determined by MTT assays. […]
The free amide group of PES-Cl was biotinylated and added to HA-tagged HSP70-transfected H1299 cells. […] The complexes were pulled down with NeutrAvidin beads, eluted with 100 mM DTT treatments, separated with SDS-PAGE and detected with anti-HA antibody (Millipore) by Western blot. […]

The subject of assay [5] is U2OS cells. The assay can be described thus: Long-lived protein degradation assay. To be noted: 20 μM. It counts as cell-based, human. The protocol:
The long-lived protein degradation assays were performed as described (Humbey et al., 2008; Pimkina et al., 2008), but with the following modifications. The cells were seeded at 30% confluency. The cells were then labeled at 37° C. for 14 h in L-valine-free medium supplemented with dialyzed FBS medium containing 0.2 mCi/ml of L-[^14C]valine (Amersham Pharmacia). After the radiolabeling period, unincorporated radioisotope was removed by three rinses with PBS (pH 7.4). Cells were then incubated at 37° C. in fresh complete media [Dulbecco's modified Eagle's medium (DMEM), 10% fetal bovine serum (FBS), 1% penicillin-streptomycin (PS)] containing 2 mM unlabeled valine for 10 h to allow the degradation of labeled short-lived proteins. Cells were then rinsed 3 times with PBS (pH 7.4), and grown in fresh complete media [DMEM, 10% FBS, 1% PS] containing either DMSO or 20 μM PES. Aliquots of the media (0.2 ml in duplicate) were taken at 0 h, 4 h, 8 h, 24 h, and 48 h and mixed with 0.2 ml of 1% bovine serum albumin and 0.4 ml of 40% trichloroacetic acid (v/v). […] Radioactivity in the aliquots was measured on a Beckman liquid scintillation system. The percentage of long-lived protein degraded was obtained by the formula % degradation=(^14C counts at timepoint/sum of ^14C counts at each time point+total cell-associated radioactivity)×100.

Each structure is given as a SMILES string.

Chain of HSP70 (Homo sapiens, UniProt P0DMV8) (P0DMV8 whole entry): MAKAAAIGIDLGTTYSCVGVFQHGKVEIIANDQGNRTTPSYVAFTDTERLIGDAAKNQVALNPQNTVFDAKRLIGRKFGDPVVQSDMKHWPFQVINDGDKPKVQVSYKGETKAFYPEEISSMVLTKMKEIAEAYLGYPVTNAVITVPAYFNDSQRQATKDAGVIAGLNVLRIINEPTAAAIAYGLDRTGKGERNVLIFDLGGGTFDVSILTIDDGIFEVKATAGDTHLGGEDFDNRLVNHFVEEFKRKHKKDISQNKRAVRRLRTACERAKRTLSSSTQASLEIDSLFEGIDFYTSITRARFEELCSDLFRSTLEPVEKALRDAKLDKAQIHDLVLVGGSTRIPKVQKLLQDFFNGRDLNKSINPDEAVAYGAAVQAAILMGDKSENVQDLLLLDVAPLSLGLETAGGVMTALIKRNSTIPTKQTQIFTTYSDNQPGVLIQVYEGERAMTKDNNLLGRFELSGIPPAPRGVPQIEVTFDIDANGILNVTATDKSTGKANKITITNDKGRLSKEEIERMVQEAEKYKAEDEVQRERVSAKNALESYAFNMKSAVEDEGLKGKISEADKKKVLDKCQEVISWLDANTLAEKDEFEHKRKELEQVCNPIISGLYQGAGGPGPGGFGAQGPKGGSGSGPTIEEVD

Take `NS(=O)(=O)C#Cc1ccccc1` [PES, 2-Phenylethynesulfonamide]: in assay [1], the “unstimulated NF-κB activity” value is “inhibited unstimulated NF-κB activity in a dose-dependent manner”. Also, in assay [1] (TNFα), the “NF-κB activation stimulated by TNFα” value is given as “inhibited NF-κB activation”. Also, in assay [2], the “abundance of HSP70/BAG-1S complex” value is “no detectable change” and the “abundance of HSP70/HSP90 complexes” value is “no change in the abundance of HSP70/HSP90 complexes”. Also, the “HSP70 in association with CHIP, HSP40 and APAF1” value in assay [2] (20 μM, 24 h) was “less HSP70 in association with CHIP, HSP40 and APAF1”. Besides, the “HSP70 interaction with viral T antigen” value in assay [2] (293 cells with SV40 T antigen, 20 μM) is “interfered with HSP70 and viral T antigen interactions”. In assay [2] (A875, MiaPaCa2, 20 μM, 24 h), the “LAMP2 in a complex with HSP70” value is on record as “significantly reduced the amount of LAMP2 in a complex with HSP70”. Besides, the “complexes containing p53 and BAK or HSP70” value in assay [2] (A875 and HepG2 cells, PES 20 μM, with or without cisplatin 50 μM) is “not observed”. For the same compound, the “interaction between HSP70 and BAG-1M” value in assay [2] (H1299, U2OS) is on record as “clear decrease”. Moreover, the “HSP70 interaction with integrin α5 and integrin β1” value in assay [2] (H1299 cells) was “reduced HSP70 and integrin α5 and integin β1 interactions”. The “interaction between monomeric p62/SQSTM1 and HSP70” value in assay [2] (MiaPaCa2, A875) was “attenuated the interaction”. For the same compound, the “LC3 in detergent-insoluble tumor fractions” value in assay [3] was “accumulated LC3 in the detergent-insoluble fractions”. Further, the “p62/SQSTM1 abundance and oligomerization in tumor” value in assay [3] (24 and 48 hr) was “increased p62/SQSMT1 abundance and oligomerization”. The “binding to HSP70 mutants L558R and Y611S” value in assay [4] is listed as “failed to bind PES”. The “basal degradation of long-lived proteins” value in assay [5] is given as “significantly reduced”.
